The values that follow come from ChEMBL document CHEMBL1201862, “PubChem BioAssay data set” (2004).

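Cells were grown in 96-well plates and exposed to each compound for 48 hours at five concentrations; endpoints were interpolated linearly between bracketing concentrations, or set to the highest concentration if not reached. GI50 = concentration required for 50% inhibition of growth.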 Activity calls are given as the source filed them. Rule as the data show it: active = GI50 up to about 1.1 µM and inactive = higher.

Among the test systems are HCT-15; HL-60; HT-29; IGROV-1; KM12; NCI-H226; NCI-H522; OVCAR-3; OVCAR-4; RPMI-8226; SF-295; SK-MEL-28; SW-620; U-251; UACC-257; UO-31; A498.
Common to all, as to assay: NCI tumour cell line growth inhibition, 48 h

Regarding `N#CC(NNC(=O)c1ccccc1O)c1cccc(O)c1` (stereo not given), the GI50 in the test with HCT-15 was 5.31 µM; in the test on HL-60, 4.74 µM (inactive); in the test with HT-29 it was 37.6 µM (inactive); in the test with IGROV-1, 3.4 µM (inactive); with KM12 it was 4.52 µM (inactive); with NCI-H226, 11.5 µM (inactive). Besides, the GI50 with NCI-H522 was 9.73 µM (inactive); in the test with OVCAR-3, 13 µM (inactive); in the test with OVCAR-4 it was 3.36 µM (inactive); in the test with RPMI-8226, > 100 µM (inactive); in the test on SF-295 it was 3.67 µM (inactive); with SK-MEL-28 it was > 100 µM (inactive). Besides, the GI50 in the test with SW-620 is 30.1 µM (inactive); in the test on U-251 it was 2.99 µM (inactive); with UACC-257, 10.1 µM (inactive); with UO-31, 1.55 µM (inactive).

Turning to `O=C(O)/C=C\C(=O)Nc1ccc(S(=O)(=O)c2ccc(NC(=O)/C=C\C(=O)O)cc2)cc1`, the GI50 with HCT-15 was above 100 µM; in the test on HL-60 it was > 100 µM (inactive); in the test on HT-29, > 100 µM (inactive); in the test on IGROV-1, > 100 µM (inactive); in the test with KM12 it was > 100 µM (inactive); in the test with NCI-H226, > 100 µM (inactive). Also, the GI50 with NCI-H522, with OVCAR-3, with OVCAR-4, in the test with RPMI-8226, in the test on SF-295 and in the test on SK-MEL-28 was > 100 µM (inactive) each time. Besides, the GI50 with SW-620, in the test with U-251, in the test on UACC-257 and with UO-31 was > 100 µM (inactive) in each case.

With `Cn1cc(NC(=O)c2cc(NC(=O)CCCCCCC(=O)Nc3cc(C(=O)Nc4cc(C(=O)NCCC(=N)N)n(C)c4)n(C)c3)cn2C)cc1C(=O)NCCC(=N)N`, the GI50 in the test on A498 was 1.93 µM (inactive); in the test with HCT-15, 32 µM; in the test with HL-60, 2.84 µM (inactive); in the test with HT-29, 73.6 µM (inactive); in the test with IGROV-1 it was 3.8 µM (inactive); in the test with KM12 it was 2.92 µM (inactive). Besides, the GI50 in the test with OVCAR-3 is 24.5 µM (inactive); with OVCAR-4 it was 36.1 µM (inactive); in the test on SF-295, 25.9 µM (inactive); with SK-MEL-28 it was 4.22 µM (inactive); with SW-620, 29.7 µM (inactive); in the test on U-251, 17.3 µM (inactive). In addition, the GI50 is 2.2 µM (inactive) in the test on UACC-257 and 39.4 µM (inactive) in the test with UO-31.

With `COc1ccc(-c2cc(C(=O)Nc3ccc(C)c(C)c3)nc(NC#N)n2)cc1`, the GI50 with A498 is > 100 µM (inactive); in the test on HCT-15 it was above 100 µM; in the test on HT-29, > 100 µM (inactive); with IGROV-1, > 100 µM (inactive); in the test on KM12 it was > 100 µM (inactive); with NCI-H522, > 100 µM (inactive). Further, the GI50 in the test on OVCAR-3, in the test with OVCAR-4, with RPMI-8226, with SK-MEL-28, in the test on SW-620 and in the test on U-251 was > 100 µM (inactive) in each case. For the same molecule, the GI50 with UACC-257 and in the test on UO-31 was > 100 µM (inactive) each time.

Turning to `CN(CCO)c1nc(=O)c2c(n1C1OC(CO)C(O)C(O)C1O)CCCC2` (stereo not given), the GI50 is above 100 µM in the test with HCT-15; > 100 µM (inactive) with HL-60; > 100 µM (inactive) in the test on HT-29; > 100 µM (inactive) in the test with IGROV-1; > 100 µM (inactive) with KM12; > 100 µM (inactive) in the test with NCI-H226. Further, the GI50 in the test with NCI-H522, in the test with OVCAR-3, in the test on RPMI-8226, in the test on SF-295, with SK-MEL-28 and in the test with SW-620 was > 100 µM (inactive) each time. Moreover, the GI50 in the test with U-251, with UACC-257 and in the test with UO-31 was > 100 µM (inactive) throughout.

Consider `N#Cc1cccc(-n2[nH]c(=O)ccc2=O)c1`, for which the GI50 is above 100 µM in the test on HCT-15; > 100 µM (inactive) with HL-60; > 100 µM (inactive) in the test on HT-29; > 100 µM (inactive) with IGROV-1; > 100 µM (inactive) with KM12; > 100 µM (inactive) in the test with NCI-H226. Moreover, the GI50 in the test on NCI-H522, in the test with OVCAR-3, with OVCAR-4, with RPMI-8226, with SF-295 and in the test on SK-MEL-28 was > 100 µM (inactive) throughout. Further, the GI50 in the test on SW-620, in the test with U-251, in the test on UACC-257 and in the test with UO-31 was > 100 µM (inactive) each time.

As to `O=C(N/C=C/C=C/Sc1ccccc1)OCc1ccccc1`, the GI50 is 18.1 µM in the test with HCT-15; 8.83 µM (inactive) in the test with HL-60; 17.5 µM (inactive) in the test on HT-29; 21.2 µM (inactive) in the test on IGROV-1; 17.5 µM (inactive) with KM12; 19.9 µM (inactive) in the test on NCI-H226. For the same molecule, the GI50 with NCI-H522 was 16.1 µM (inactive); with OVCAR-3, 17.3 µM (inactive); in the test on OVCAR-4, 21.7 µM (inactive); in the test with RPMI-8226 it was 18.7 µM (inactive); in the test with SF-295, 19.6 µM (inactive); in the test with SK-MEL-28 it was 18.7 µM (inactive). Also, the GI50 in the test with SW-620 is 17.7 µM (inactive); in the test with U-251, 19.3 µM (inactive); in the test with UACC-257 it was 18.7 µM (inactive); with UO-31 it was 17.5 µM (inactive).

Consider `O=[N+]([O-])c1ccc(-c2noc(-c3ccccc3)c2C2=NCCN2)cc1`, for which the GI50 in the test with HCT-15 is above 100 µM; in the test with HL-60, 55.3 µM (inactive); in the test on HT-29 it was 52.1 µM (inactive); in the test on IGROV-1, > 100 µM (inactive); with KM12, > 100 µM (inactive); in the test on NCI-H226 it was 75.2 µM (inactive). Moreover, the GI50 was 20.5 µM (inactive) with NCI-H522; 28.6 µM (inactive) in the test with OVCAR-3; 77.6 µM (inactive) in the test on OVCAR-4; > 100 µM (inactive) in the test on RPMI-8226; 44.7 µM (inactive) in the test with SF-295; > 100 µM (inactive) in the test with SK-MEL-28. In addition, the GI50 in the test with SW-620 is > 100 µM (inactive); with U-251, 84.5 µM (inactive); in the test with UACC-257, 41.2 µM (inactive); in the test on UO-31 it was 24.9 µM (inactive).

As to `C#CCn1c(=O)c2cccnc2n(CC#C)c1=O`, the GI50 in the test on HCT-15 was above 100 µM; in the test on HL-60 it was > 100 µM (inactive); with HT-29, > 100 µM (inactive); with KM12, > 100 µM (inactive); in the test with NCI-H226, > 100 µM (inactive); in the test with NCI-H522, > 100 µM (inactive). The GI50 with OVCAR-4, in the test on RPMI-8226, in the test on SF-295, in the test with SK-MEL-28, in the test on SW-620 and with U-251 was > 100 µM (inactive) throughout. Further, the GI50 in the test on UACC-257 is > 100 µM (inactive).

As for `O=Cc1c[nH]c2c(=O)[nH]cnc12`, the GI50 with HCT-15 was above 100 µM; in the test on HL-60, > 100 µM (inactive); with HT-29, > 100 µM (inactive); in the test with IGROV-1, > 100 µM (inactive); with KM12 it was > 100 µM (inactive); in the test on NCI-H522 it was > 100 µM (inactive). The GI50 in the test with OVCAR-3, in the test with RPMI-8226, in the test on SF-295, with SK-MEL-28, in the test on SW-620 and in the test on UACC-257 was > 100 µM (inactive) in each case. Further, the GI50 in the test with UO-31 is > 100 µM (inactive).

`CCN(CC)CC1c2ccccc2C(CNc2ccccc2)N1C` (stereo not given): the GI50 is above 100 µM in the test with HCT-15; 29.6 µM (inactive) in the test on HL-60; > 100 µM (inactive) in the test on IGROV-1; > 100 µM (inactive) in the test with KM12; > 100 µM (inactive) in the test with NCI-H522; > 100 µM (inactive) in the test on OVCAR-3. Further, the GI50 with OVCAR-4 was > 100 µM (inactive); in the test on RPMI-8226, 80.7 µM (inactive); in the test on SF-295, > 100 µM (inactive); in the test with SK-MEL-28, > 100 µM (inactive); with SW-620, > 100 µM (inactive); with UACC-257, > 100 µM (inactive). In the test with UO-31, the GI50 is > 100 µM (inactive).

Take `CCN(CC)CCOC(c1ccccc1)c1ccccc1.CCOC(=O)Nc1ccc(S(=O)(=O)NCCCl)cc1.CCOC(=O)Nc1ccc(S(=O)(=O)NCCCl)cc1.Nc1ccc(C(=O)O)c(O)c1`: the GI50 with A498 is > 100 µM (inactive); in the test on HCT-15 it was above 100 µM; in the test on HL-60, > 100 µM (inactive); with HT-29 it was > 100 µM (inactive); in the test on IGROV-1 it was > 100 µM (inactive); in the test on KM12, > 100 µM (inactive). The GI50 in the test on NCI-H226, in the test with NCI-H522, with OVCAR-3, in the test on OVCAR-4, in the test on SF-295 and with SK-MEL-28 was > 100 µM (inactive) in each case. Besides, the GI50 in the test on SW-620, with U-251, in the test on UACC-257 and in the test with UO-31 was > 100 µM (inactive) each time.

For the molecule `O.O=C([O-])c1ccccc1Nc1ccccc1C(=O)[O-].[Zn+2]`, the GI50 was 19.2 µM (inactive) in the test on A498; above 60 µM in the test on HCT-15; 23.7 µM (inactive) with HL-60; > 70.6 µM (inactive) in the test with HT-29; 13.3 µM (inactive) with IGROV-1; > 100 µM (inactive) in the test on KM12. For the same molecule, the GI50 is 31 µM (inactive) in the test on NCI-H226; 13.2 µM (inactive) with NCI-H522; 18.8 µM (inactive) in the test with OVCAR-3; 19.8 µM (inactive) in the test with OVCAR-4; 48 µM (inactive) in the test on RPMI-8226; 17.4 µM (inactive) in the test with SF-295. For the same molecule, the GI50 in the test with SK-MEL-28 is 19.9 µM (inactive); in the test on SW-620, 23.6 µM (inactive); in the test on U-251, 18.7 µM (inactive); with UACC-257 it was 14.3 µM (inactive); in the test with UO-31, > 44.7 µM (inactive).
